Results as given in US20230116080A1, “METHOD FOR CONTROLLING THE GROWTH OF UNDESIRABLE VEGETATION” (UPL Limited, priority 2021, published 2023).

Tested on: weedy Eleusine indica
Assay: Post-emergence herbicidal efficacy of L-glufosinate, other herbicides and their combinations in greenhouse trials (observed control vs Colby expected)
Format: in vivo
Conditions: for Control %: Table 1
Experimental: Evaluation of Post-Emergence Herbicidal Activity of Composition Under […]
Greenhouse trials were carried out to evaluate the efficacy of the combination of L-glufosinate and the other herbicides on weedy Eleusine indica.
The soil used was sandy clay loam—Sand: 68.0%; Silt: 8.0%; Clay: 24.0%.
All treatments were in 3 replications per treatment with a spray volume of […].
The expected efficacy of a combination of L-glufosinate and the other herbicides was calculated using the well-established Colby method. Any difference between the observed and “expected” efficacy could be attributed to synergy between the two compounds.
In the Colby method, the expected (or predicted) response of a combination of herbicides is calculated by taking the product of the observed response for each individual component of the combination when applied alone, divided by 100, and subtracting this value from the sum of the observed response for each component when applied alone. An unexpected enhancement in efficacy of the combination is then determined by comparing the observed response of the combination to the expected (or predicted) response as calculated from the observed response of each individual component alone. If the observed response of the combination is greater than the expected (or predicted) response, or stated conversely, if the difference between the observed and expected response is greater than zero, then the combination is said to be synergistic or unexpectedly effective (Colby, S. R., Weeds, 1967(15), p. 20-22). The Colby method requires only a single dose of each herbicide applied alone and the mixture of both doses. The formula used to calculate the expected efficacy (EE) which was compared with the observed efficacy (OE) to determine the efficacy of the present invention is explained herein below:
The expected efficacy for a combination of two active ingredients is as follows:
The expected efficacy for a combination of three active ingredients is as follows:
The percentage efficacy was calculated after 7, 14, 21, 28, 35 days of applications (DAA). The target weed was weedy Eleusine indica, and the concentration of the herbicide and the results are recorded in the table 1 below:
The percentage efficacy was calculated after 7 and 35 days of application (DAA). The target weed was weedy Eleusine indica, and the concentration of the herbicide and the results are recorded in the table 2 below:
The percentage efficacy was calculated after 3, 7, 14, 21, 28, 35 days of application (DAA). The target weed was weedy Eleusine indica, and the concentration of the herbicide and the results are recorded in the table 3 below:
The target weed was weedy Eleusine indica, and the concentration of the herbicide and the results are recorded in the table 4 below:
The percentage efficacy was calculated after 7, 14, 21, 28 and 35 days of application (DAA). The target weed was weedy Eleusine indica, and the concentration of the herbicide and the results are recorded in the table 5 below:
The percentage efficacy was calculated after 3, 7, 28, 35 days of application (DAA). The target weed was weedy Eleusine indica, and the concentration of the herbicide and the results are recorded in the table 6 below: […]

[1] = 7 DAA, dose a.i. g/h: L-glufosinate 150, oxyfluorfen 107.1, imazethapyr 75, carfentrazone 7.5
[2] = 14 DAA, dose a.i. g/h: L-glufosinate 150, oxyfluorfen 107.1, imazethapyr 75, carfentrazone 7.5
[3] = 21 DAA, dose a.i. g/h: L-glufosinate 150, oxyfluorfen 107.1, imazethapyr 75, carfentrazone 7.5
[4] = 28 DAA, dose a.i. g/h: L-glufosinate 150, oxyfluorfen 107.1, imazethapyr 75, carfentrazone 7.5
[5] = 35 DAA, dose a.i. g/h: L-glufosinate 150, oxyfluorfen 107.1, imazethapyr 75, carfentrazone 7.5
[6] = Table 5, 7 DAA, g ai/h: L-glufosinate 150, triclopyr 288
[7] = Table 5, 14 DAA, g ai/h: L-glufosinate 150, triclopyr 288
[8] = Table 5, 21 DAA, g ai/h: L-glufosinate 150, triclopyr 288
[9] = Table 5, 28 DAA, g ai/h: L-glufosinate 150, triclopyr 288
[10] = Table 5, 35 DAA, g ai/h: L-glufosinate 150, triclopyr 288
[11] = Table 6, 3 DAA, g ai/h: L-glufosinate 150, clethodim 45
[12] = Table 6, 7 DAA, g ai/h: L-glufosinate 150, clethodim 45
[13] = Table 6, 28 DAA, g ai/h: L-glufosinate 150, clethodim 45
[14] = Table 6, 35 DAA, g ai/h: L-glufosinate 150, clethodim 45
[15] = Table 2, 7 DAA, g ai/h: L-glufosinate 150, glyphosate 379
[16] = Table 2, 35 DAA, g ai/h: L-glufosinate 150, glyphosate 379
[17] = Table 3, 3 DAA, g ai/h: L-glufosinate 150, flumioxazin 30
[18] = Table 3, 7 DAA, g ai/h: L-glufosinate 150, flumioxazin 30
[19] = Table 3, 14 DAA, g ai/h: L-glufosinate 150, flumioxazin 30
[20] = Table 3, 21 DAA, g ai/h: L-glufosinate 150, flumioxazin 30
[21] = Table 3, 28 DAA, g ai/h: L-glufosinate 150, flumioxazin 30
[22] = Table 3, 35 DAA, g ai/h: L-glufosinate 150, flumioxazin 30
[23] = Table 4, 3 DAA, g ai/h: L-glufosinate 150, 2,4-D 204
[24] = Table 4, 7 DAA, g ai/h: L-glufosinate 150, 2,4-D 204
[25] = Table 4, 14 DAA, g ai/h: L-glufosinate 150, 2,4-D 204
[26] = Table 4, 21 DAA, g ai/h: L-glufosinate 150, 2,4-D 204
[27] = Table 4, 28 DAA, g ai/h: L-glufosinate 150, 2,4-D 204
[28] = Table 4, 35 DAA, g ai/h: L-glufosinate 150, 2,4-D 204
[29] = Table 7, 7 DAA, g ai/h: L-glufosinate 150, haloxyfop 50

## CCc1cnc(C2=NC(C)(C(C)C)C(=O)N2)c(C(=O)O)c1 (stereo not shown) [Imazethapyr, imazethapyr]
[1]
  Control %: 8.3%
[2]
  Control %: 12%
[3]
  Control %: 12.7%
[4]
  Control %: 12.7%
[5]
  Control %: 10%

## O=C(O)COc1nc(Cl)c(Cl)cc1Cl [Triclopyr, triclopyr]
[6]
  % control: 8%
[7]
  % control: 13.3%
[8]
  % control: 6.7%
[9]
  % control: 6.7%
[10]
  % control: 6.7%

## CCSC(C)CC1CC(=O)C(/C(CC)=N/OC/C=C/Cl)=C(O)C1 (stereo not shown) [Clethodim, clethodim]
[11]
  % control: 6.7%
[12]
  % control: 15%
[13]
  % control: 81.7%
[14]
  % control: 84.3%

## Cc1nn(-c2cc(CC(Cl)C(=O)O)c(Cl)cc2F)c(=O)n1C(F)F (stereo not shown) [Carfentrazone, carfentrazone]
[1]
  Control %: 14%
7 DAA, dose a.i. g/h: carfentrazone 9.0, alone or with L-glufosinate 150
  Control %: 16.7%
[2]
  Control %: 12.3%
14 DAA, dose a.i. g/h: carfentrazone 9.0, alone or with L-glufosinate 150
  Control %: 16.7%
[3]
  Control %: 11%
21 DAA, dose a.i. g/h: carfentrazone 9.0, alone or with L-glufosinate 150
  Control %: 14%
[4]
  Control %: 7.7%
28 DAA, dose a.i. g/h: carfentrazone 9.0, alone or with L-glufosinate 150
  Control %: 12.3%
[5]
  Control %: 0%
35 DAA, dose a.i. g/h: carfentrazone 9.0, alone or with L-glufosinate 150
  Control %: 6.7%

## CP(=O)(O)CC[C@H](N)C(=O)O [L-glufosinate]
[1]
  Control %: 43.3%
[2]
  Control %: 41.3%
[3]
  Control %: 37.3%
[4]
  Control %: 28.3%
[5]
  Control %: 25.3%
[15]
  % control: 50.7%
[16]
  % control: 54.3%
[17]
  % control: 12.3%
[18]
  % control: 50.7%
[19]
  % control: 65.0%
[20]
  % control: 64.3%
[21]
  % control: 59.3%
[22]
  % control: 54.3%
[23]
  % control: 12.3%
[24]
  % control: 50.7%
[25]
  % control: 65.0%
[26]
  % control: 64.3%
[27]
  % control: 59.3%
[28]
  % control: 54.3%
[6]
  % control: 50.7%
[7]
  % control: 65.0%
[8]
  % control: 64.3%
[9]
  % control: 59.3%
[10]
  % control: 54.3%
[11]
  % control: 12.3%
[12]
  % control: 50.7%
[13]
  % control: 59.3%
[14]
  % control: 54.3%
[29]
  % control: 50.7%

## O=C(O)COc1ccc(Cl)cc1Cl [2,4-D]
[23]
  % control: 5%
[24]
  % control: 4%
[25]
  % control: 6.7%
[26]
  % control: 5%
[27]
  % control: 5%
[28]
  % control: 0%

## CCOc1cc(Oc2ccc(C(F)(F)F)cc2Cl)ccc1[N+](=O)[O-] [Oxyfluorfen, oxyfluorfen]
[1]
  Control %: 44%
[2]
  Control %: 40%
[3]
  Control %: 37%
[4]
  Control %: 28.3%
[5]
  Control %: 23.3%

## O=C(O)CNCP(=O)(O)O [Glyphosate, glyphosate]
[15]
  % control: 28.3%
[16]
  % control: 81.7%

## C#CCN1C(=O)COc2cc(F)c(N3C(=O)C4=C(CCCC4)C3=O)cc21 [Flumioxazin, flumioxazin]
[17]
  % control: 5.0%
[18]
  % control: 28.3%
[19]
  % control: 21.7%
[20]
  % control: 10%
[21]
  % control: 5%
[22]
  % control: 0%

## CC(Oc1ccc(Oc2ncc(C(F)(F)F)cc2Cl)cc1)C(=O)O (stereo not shown) [Haloxyfop, haloxyfop]
[29]
  % control: 25%
